target: T1, SIRT1 (Homo sapiens, UniProt Q96EB6); assay: Mass spectrometry based SIRT1 deacetylation assay (activation); format: biochemical; conditions: 10 nM SIRT1, 0.5 μM peptide substrate, 120 μM βNAD+, 25 min at 25° C.
T1 sequence (Q96EB6 1-747): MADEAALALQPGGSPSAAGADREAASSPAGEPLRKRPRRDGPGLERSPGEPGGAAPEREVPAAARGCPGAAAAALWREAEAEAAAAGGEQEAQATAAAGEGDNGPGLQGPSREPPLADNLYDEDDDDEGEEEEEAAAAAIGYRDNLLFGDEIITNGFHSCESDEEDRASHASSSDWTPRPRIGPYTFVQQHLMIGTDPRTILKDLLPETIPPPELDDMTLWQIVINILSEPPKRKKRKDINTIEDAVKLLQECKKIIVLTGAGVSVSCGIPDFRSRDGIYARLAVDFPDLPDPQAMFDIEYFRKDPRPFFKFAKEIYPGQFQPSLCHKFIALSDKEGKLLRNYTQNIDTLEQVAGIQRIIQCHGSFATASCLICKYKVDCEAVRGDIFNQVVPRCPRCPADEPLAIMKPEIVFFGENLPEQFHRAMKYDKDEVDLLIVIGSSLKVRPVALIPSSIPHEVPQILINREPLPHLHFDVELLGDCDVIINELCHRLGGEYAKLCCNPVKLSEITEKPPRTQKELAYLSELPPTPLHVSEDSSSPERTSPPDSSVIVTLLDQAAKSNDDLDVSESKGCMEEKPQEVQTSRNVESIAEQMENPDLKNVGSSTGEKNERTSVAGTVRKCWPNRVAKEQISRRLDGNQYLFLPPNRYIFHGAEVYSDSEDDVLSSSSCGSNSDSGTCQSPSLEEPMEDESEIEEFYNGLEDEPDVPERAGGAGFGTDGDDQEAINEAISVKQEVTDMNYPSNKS
Text: A mass spectrometry based assay was used to identify modulators of SIRT1 activity. The mass spectrometry based assay utilizes a peptide having 20 amino acid residues as follows: Ac-EE-K (biotin)-GQSTSSHSK (Ac)N1eSTEG-K(5TMR)-EE-NH2 (SEQ ID NO: 1) wherein K(Ac) is an acetylated lysine residue and Nle is a norleucine. The peptide is labeled with the fluorophore 5TMR (excitation 540 nm/emission 580 nm) at the C-terminus. The sequence of the peptide substrate is based on p53 with several modifications. In addition, the methionine residue naturally present in the sequence was replaced with the norleucine because the methionine may be susceptible to oxidation during synthesis and purification.
The mass spectrometry assay is conducted as follows: 0.5 μM peptide substrate and 120 μM βNAD^+ is incubated with 10 nM SIRT1 for 25 minutes at 25° C. in a reaction buffer (50 mM Tris-acetate pH 8, 137 mM NaCl, 2.7 mM KCl, 1 mM MgCl2, 5 mM DTT, 0.05% BSA). Test compounds may be added to the reaction as described above. The SirT1 gene is cloned into a T7-promoter containing vector and transformed into BL21(DE3). After the 25 minute incubation with SIRT1, 10 μL of 10% formic acid is added to stop the reaction. Reactions are sealed and frozen for later mass spec analysis. Determination of the mass of the substrate peptide allows for precise determination of the degree of acetylation (i.e. starting material) as compared to deacetylated peptide (product).
A control for inhibition of sirtuin activity is conducted by adding 1 μL of 500 mM nicotinamide as a negative control at the start of the reaction (e.g., permits determination of maximum sirtuin inhibition). A control for activation of sirtuin activity is conducted using 10 nM of sirtuin protein, with 1 μL of DMSO in place of compound, to determine the amount of deacetylation of the substrate at a given timepoint within the linear range of the assay. This timepoint is the same as that used for test compounds and, within the linear range, the endpoint represents a change in velocity.
For the above assay, SIRT1 protein was expressed and purified as follows. The SirT1 gene was cloned into a T7-promoter containing vector and transformed into BL21(DE3). The protein was expressed by induction with 1 mM IPTG as an N-terminal His-tag fusion protein at 18° C. overnight and harvested at 30,000×g. Cells were lysed with lysozyme in lysis buffer (50 mM Tris-HCl, 2 mM Tris[2-carboxyethyl]phosphine (TCEP), 10 μM ZnCl2, 200 mM NaCl) and further treated with sonication for 10 min for complete lysis. The protein was purified over a Ni-NTA column (Amersham) and fractions containing pure protein were pooled, concentrated and run over a sizing column (Sephadex S200 26/60 global). The peak containing soluble protein was collected and run on an Ion-exchange column (MonoQ). Gradient elution (200 mM-500 mM NaCl) yielded pure protein. This protein was concentrated and dialyzed against dialysis buffer (20 mM Tris-HCl, 2 mM TCEP) overnight. The protein was aliquoted and frozen at −80° C. until further use.
Sirtuin modulating compounds that activated SIRT1 were identified using the assay described above and are shown below in Table 1. The EC1.5 values represent the concentration of test compounds that result in 150% activation of SIRT1. The EC1.5 values for the activating compounds are represented by A (EC1.5<1.0 uM), B (EC1.5 1-25 uM), C (EC1.5>25 uM). The percent maximum fold activation is represented by A (Fold activation >200%) or B (Fold Activation <200%). “NT” indicates the compound was not tested in a particular assay.

| SMILES | EC1.5 (concentration of test compound that results in 150% activation of SIRT1) | % Fold Act. (percent maximum fold activation) |
| --- | --- | --- |
| O=C(Nc1nccs1)c1ccc(F)c2ccc(-c3cccc(C(F)(F)F)c3)nc12 [Compound 66] | C (EC1.5>25 uM) | – |
| Cn1ccc(C(=O)Nc2cccc3ccc(-c4cncc(F)c4)nc23)n1 [Compound 284] | C (EC1.5>25 uM) | – |
| O=S(=O)(Nc1cccc2ccc(-c3cccc(C(F)(F)F)c3)nc12)c1ccccn1 [Compound 273] | C (EC1.5>25 uM) | – |
| c1cncc(CNc2cccc3ccc(-c4ccncc4)nc23)c1 [Compound 146] | C (EC1.5>25 uM) | – |
| O=C(Nc1cccc2ccc(-c3cccc(OC(F)(F)F)c3)nc12)c1cccc(F)c1 [Compound 21] | C (EC1.5>25 uM) | – |
| O=C(Nc1cccc2ccc(-c3cccnc3)nc12)c1cscn1 [Compound 76] | A (EC1.5<1.0 uM) | A (Fold activation >200%) |
| O=C(Nc1cccc2ccc(-c3ccccc3F)nc12)c1cscn1 [Compound 75] | B (EC1.5 1-25 uM) | A (Fold activation >200%) |
| O=C(Nc1cccc2ccc(-c3ccc(F)c(C(F)(F)F)c3)nc12)c1ccccc1 [Compound 170] | C (EC1.5>25 uM) | – |
| CS(=O)(=O)c1ccc(-c2ccc3cccc(NC(=O)c4cscn4)c3n2)cc1 [Compound 106] | B (EC1.5 1-25 uM) | B (Fold Activation <200%) |
| O=C(Nc1ccncn1)c1cccc2ccc(-c3cccc(OC4CCNCC4)c3)nc12 [Compound 133] | A (EC1.5<1.0 uM) | A (Fold activation >200%) |
| O=C(Nc1nc(-c2ccccc2)cs1)c1cccc2ccc(-c3cccc(C(F)(F)F)c3)nc12 [Compound 54] | C (EC1.5>25 uM) | – |
| O=C(Nc1ncc(CN2CCOCC2)s1)c1cccc2ccc(-c3cccc(C(F)(F)F)c3)nc12 [Compound 188] | A (EC1.5<1.0 uM) | A (Fold activation >200%) |
| O=C(Nc1cccc(CN2CCCC2)n1)c1cccc2ccc(-c3cccnc3)nc12 [Compound 230] | B (EC1.5 1-25 uM) | A (Fold activation >200%) |
| O=C(Nc1nccs1)c1cccc2ccc(-c3cccc(OC(F)(F)F)c3)nc12 [Compound 14] | A (EC1.5<1.0 uM) | B (Fold Activation <200%) |
| O=C(Nc1cnccn1)c1cccc2ccc(-c3cccc(C(F)(F)F)c3)nc12 [Compound 16] | A (EC1.5<1.0 uM) | A (Fold activation >200%) |
| FC(F)(F)c1cccc(-c2ccc3cccc(CNc4nccs4)c3n2)c1 [Compound 104] | C (EC1.5>25 uM) | – |

| SMILES | EC1.5 (concentration of test compound that results in 150% activation of SIRT1) | % Fold Act. (percent maximum fold activation) |
| --- | --- | --- |
| O=C(Nc1cccnc1)c1cccc2ccc(-c3ccc(C(F)(F)F)cc3)nc12 [Compound 98] | C (EC1.5>25 uM) | – |
| O=C(Nc1cccnc1)c1cccc2ncc(-c3cccc(OC(F)(F)F)c3)nc12 [Compound 126] | B (EC1.5 1-25 uM) | B (Fold Activation <200%) |
| FC(F)(F)c1cccc(-c2ccc3cccc(CNC4CCOCC4)c3n2)c1 [Compound 144] | C (EC1.5>25 uM) | – |
| O=C(Nc1cccnc1)Nc1cccc2ccc(-c3cccc(OC(F)(F)F)c3)nc12 [Compound 47] | A (EC1.5<1.0 uM) | A (Fold activation >200%) |
| O=C(Nc1nccs1)c1cccc2ccc(-c3cccc(N4CCOCC4)c3)nc12 [Compound 108] | A (EC1.5<1.0 uM) | A (Fold activation >200%) |
| O=C(Nc1cccc2ccc(-c3ccccc3)nc12)c1cccc(OC(F)(F)F)c1 [Compound 6] | C (EC1.5>25 uM) | – |
| FC(F)(F)c1cccc(-c2ccc3cccc(CNC4CCCC4)c3n2)c1 [Compound 143] | C (EC1.5>25 uM) | – |
| FC(F)(F)c1cccc(-c2ccc3cccc(NCc4nccs4)c3n2)c1 [Compound 137] | C (EC1.5>25 uM) | – |
| O=C(Nc1cccc(N2CCOCC2)n1)c1cccc2ccc(-c3cccc(C(F)(F)F)c3)nc12 [Compound 319] | A (EC1.5<1.0 uM) | A (Fold activation >200%) |
| CS(=O)(=O)c1cccc(-c2ccc3cccc(NCc4cccnc4)c3n2)c1 [Compound 163] | C (EC1.5>25 uM) | – |
| O=C(Nc1nc2ccccc2s1)c1cccc2ccc(-c3cccc(N4CCOCC4)c3)nc12 [Compound 250] | A (EC1.5<1.0 uM) | A (Fold activation >200%) |
| Cc1nc(NC(=O)c2cccc3ccc(-c4cccc(N5CCOCC5)c4)nc23)sc1C [Compound 240] | A (EC1.5<1.0 uM) | A (Fold activation >200%) |
| CN1CCN(Cc2cccc(C(=O)Nc3cccc4ccc(-c5cccc(C(F)(F)F)c5)nc34)c2)CC1 [Compound 216] | A (EC1.5<1.0 uM) | A (Fold activation >200%) |
| O=C(Nc1cnccn1)c1cccc2ccc(-c3cccnc3)nc12 [Compound 181] | C (EC1.5>25 uM) | – |
| O=C(Nc1cccc2ccc(-c3ccc(F)c(C(F)(F)F)c3)nc12)c1ccncc1 [Compound 161] | C (EC1.5>25 uM) | – |

— US8685970B2, “Quinolines and related analogs as sirtuin modulators” (GlaxoSmithKline, LLC, priority 2008, dated 2014)
